Data from patent US20210147455A1 (SHAANXI SYNTHETIC PHARMACEUTICAL CO., LTD., priority 2018, published 2021).
≈ marks a conversion by molar mass, not a printed value. Where “and” joins values, the source holds several entries; their conditions need not be identical. Equal values may be shown once. Read-outs that look alike come from different tables or passages of the source.

How the values were obtained:
[1] = Hygroscopicity study (Chinese Pharmacopoeia 2015, 9103); format: physicochemical; conditions: for Hygroscopic weight gain: 25° C.±1° C., saturated ammonium chloride solution, 24 hours; for Conclusion (hygroscopicity): after 24 hours
Description: Test method: • 1. A dried glass weighing bottle with stopper (having an outer diameter of 50 mm and a height of 15 mm) was placed in a thermostatic drier (a saturated ammonium chloride solution was placed on the lower part of the thermostatic drier) at an appropriate temperature of 25° C.±1° C. on the day earlier before the test, and the weight (m1) of weighing bottle was precisely weighed. • 2. An appropriate amount of test sample was taken and spread in the weighing bottle, and the thickness of the test sample was controlled to about 1 mm, and the weight (m2) was precisely weighed. • 3. The weighing bottle was opened and was placed, together with the bottle cap, under the above mentioned constant temperature and humidity condition for 24 hours. • 4. The weighing bottle was capped and precisely weighed to obtain the weight (m3).
Description of hygroscopicity characterization and delimitation of hygroscopicity weight gain: Deliquescence: enough moisture is absorbed to form a liquid. […] Slightly hygroscopic: hygroscopic weight gain is less than 2% but not less than 0.2%. Not or hardly hygroscopic: hygroscopic weight gain is less than 0.2%.

[2] = Stability experiments under 40° C.±2° C. and 75% R.H±5% R.H (accelerated test); format: physicochemical; conditions: 40° C./75% R.H
[3] = Stability experiments under 25° C.±2° C. and 65% R.H±5% R.H; conditions: 25° C./65% R.H
From the text: • 1. […] The results are shown in detail in the following table.

[4] = day 5, High temperature of 40° C.
[5] = day 10, High temperature of 40° C.
[6] = month 3, Phosphate Monopotassium Salt
[7] = month 6, Phosphate Monopotassium Salt
[8] = month 9, Phosphate Monopotassium Salt
[9] = month 12, Phosphate Monopotassium Salt
[10] = month 24, Phosphate Monopotassium Salt

In the case of `CC[C@@H]([C@H](C)OP(=O)(O)O)n1ncn(-c2ccc(N3CCN(c4ccc(OC[C@@H]5CO[C@@](Cn6cncn6)(c6ccc(F)cc6F)C5)cc4)CC3)cc2)c1=O` [Example 3, Posaconazole Phosphate Monocholinate Pentahydrate], the Hygroscopic weight gain [1] is reported as 0.15%, the “Conclusion (hygroscopicity)” value [1] is reported as “No hygroscopicity” and the Content ([2]; month 0) is reported as 99.87%. For the same molecule, the Description ([2]; month 0) was “White”, the Related substance ([2]; month 0) was 0.13% and the Content ([2]; month 1) was 99.87%. For the same molecule, the Description ([2]; month 1) was “White”, the Related substance ([2]; month 1) was 0.13% and the Content ([2]; month 2) was 99.87%. The Description ([2]; month 2) was “White”, the Related substance ([2]; month 2) was 0.13% and the Content ([2]; month 3) was 99.86%. The Description ([2]; month 3) was “White”, the Related substance ([2]; month 3) was 0.14% and the Content ([2]; month 6) was 99.85%. The Description ([2]; month 6) was “White”, the Related substance ([2]; month 6) was 0.15% and the Content (day 0) was 99.87%. The Description (day 0) was “White”, the Related substance (day 0) was 0.13% and the Content (day 5, High humidity of 92.5%) was 99.86%. The Description (day 5, High humidity of 92.5%) was “White”, the Related substance (day 5, High humidity of 92.5%) was 0.14% and the Content [4] was 99.87%. For the same molecule, the Description [4] was “White”, the Related substance [4] was 0.13% and the Content (day 5, Illumination of 4500LX) was 99.87%. The Description (day 5, Illumination of 4500LX) was “White”, the Related substance (day 5, Illumination of 4500LX) was 0.13% and the Content (day 10, High humidity of 92.5%) was 99.86%. The Description (day 10, High humidity of 92.5%) was “White”, the Related substance (day 10, High humidity of 92.5%) was 0.14% and the Content [5] was 99.85%. The Description [5] was “White”, the Related substance [5] was 0.15% and the Content (day 10, Illumination of 4500LX) was 99.86%. The Description (day 10, Illumination of 4500LX) was “White”, the Related substance (day 10, Illumination of 4500LX) was 0.14% and the Content ([3]; month 0) was 99.37%. The Description ([3]; month 0) was “White”, the Related substance ([3]; month 0) was 0.13% and the Content ([3]; month 3) was 99.87%. For the same molecule, the Description ([3]; month 3) was “White”, the Related substance ([3]; month 3) was 0.13% and the Content ([3]; month 6) was 99.87%. The Description ([3]; month 6) was “White”, the Related substance ([3]; month 6) was 0.13% and the Content ([3]; month 9) was 99.84%. For the same molecule, the Description ([3]; month 9) was “White”, the Related substance ([3]; month 9) was 0.16% and the Content ([3]; month 12) was 99.84%. The Description ([3]; month 12) was “White”, the Related substance ([3]; month 12) was 0.16% and the Content ([3]; month 24) was 99.79%. The Description ([3]; month 24) was “White” and the Related substance ([3]; month 24) was 0.21%.

`CC[C@@H]([C@H](C)O)n1ncn(-c2ccc(N3CCN(c4ccc(OC[C@@H]5CO[C@@](Cn6cncn6)(c6ccc(F)cc6F)C5)cc4)CC3)cc2)c1=O` [Posaconazole] gave a solubility (Solubility study; isopropanol, organic solvent or mixture) of 0.1 mg/mL (≈ 143 µM), a solubility (Solubility study; methanol, organic solvent or mixture) of 0.06 mg/mL (≈ 85.6 µM) and a solubility (Solubility study; water) of 0.05 mg/mL (≈ 71.3 µM).

In the case of “Posaconazole Phosphate Monopotassium Salt Trihydrate [Comparative Example 6]”, the Hygroscopic weight gain [1] is reported as 1.95%, the “Conclusion (hygroscopicity)” value [1] is reported as “Slight hygroscopicity” and the Content ([2]; month 0) is reported as 99.87%. The Description ([2]; month 0) was “White”, the Related substance ([2]; month 0) was 0.13% and the Content ([2]; month 1) was 99.76%. For the same molecule, the Description ([2]; month 1) was “White”, the Related substance ([2]; month 1) was 0.24% and the Content ([2]; month 2) was 99.65%. For the same molecule, the Description ([2]; month 2) was “White”, the Related substance ([2]; month 2) was 0.35% and the Content ([2]; month 3) was 99.49%. For the same molecule, the Description ([2]; month 3) was “White”, the Related substance ([2]; month 3) was 0.51% and the Content ([2]; month 6) was 99.38%. For the same molecule, the Description ([2]; month 6) was “White”, the Related substance ([2]; month 6) was 0.62% and the Content ([3]; month 0) was 99.87%. For the same molecule, the Description ([3]; month 0) was “White”, the Related substance ([3]; month 0) was 0.13% and the Content ([3]; month 3) was 99.78%. The Description ([3]; month 3) was “White”, the Related substance ([3]; month 3) was 0.22% and the Content ([3]; month 6) was 99.70%. For the same molecule, the Description ([3]; month 6) was “White”, the Related substance ([3]; month 6) was 0.30% and the Content ([3]; month 9) was 99.59%. The Description ([3]; month 9) was “White”, the Related substance ([3]; month 9) was 0.41% and the Content ([3]; month 12) was 99.48%. For the same molecule, the Description ([3]; month 12) was “White”, the Related substance ([3]; month 12) was 0.52% and the Content ([3]; month 24) was 99.00%. For the same molecule, the Description ([3]; month 24) was “White” and the Related substance ([3]; month 24) was 1.00%.

With “Posaconazole Phosphate Monopotassium Salt [Comparative Example 3]” the Hygroscopic weight gain [1] was 1.56%, the “Conclusion (hygroscopicity)” value [1] was “Slight hygroscopicity” and the Content ([2]; month 0) was 99.87%. The Description ([2]; month 0) was “White”, the Related substance ([2]; month 0) was 0.13% and the Content ([2]; month 1) was 99.75%. The Description ([2]; month 1) was “White”, the Related substance ([2]; month 1) was 0.25% and the Content ([2]; month 2) was 99.64%. The Description ([2]; month 2) was “White”, the Related substance ([2]; month 2) was 0.36% and the Content ([2]; month 3) was 99.51%. For the same molecule, the Description ([2]; month 3) was “White”, the Related substance ([2]; month 3) was 0.49% and the Content ([2]; month 6) was 99.38%. For the same molecule, the Description ([2]; month 6) was “White”, the Related substance ([2]; month 6) was 0.62% and the Content ([3]; month 0) was 99.87%. The Description ([3]; month 0) was “White”, the Related substance ([3]; month 0) was 0.13% and the Description ([3]; month 3) was “White”. For the same molecule, the Content [3, 6] was 99.73% and 99.80%, the Related substance [3, 6] was 0.27% and 0.20% and the Description ([3]; month 6) was “White”. The Content [3, 7] was 99.67% and 99.68%, the Related substance [3, 7] was 0.37% and 0.32% and the Description ([3]; month 9) was “White”. The Content [3, 8] was 99.55% and 99.59%, the Related substance [3, 8] was 0.45% and 0.41% and the Description ([3]; month 12) was “White”. The Content [3, 9] was 99.41% and 99.48%, the Related substance [3, 9] was 0.59% and 0.52% and the Description ([3]; month 24) was “White”. For the same molecule, the Content [3, 10] was 98.88% and 99.03% and the Related substance [3, 10] was 1.12% and 0.97%.

For “Posaconazole Phosphate Monosodium Salt Trihydrate [Comparative Example 7]”, the Hygroscopic weight gain [1] was 1.86%, the “Conclusion (hygroscopicity)” value [1] was “Slight hygroscopicity” and the Content ([2]; month 0) was 99.87%. For the same molecule, the Description ([2]; month 0) was “White”, the Related substance ([2]; month 0) was 0.13% and the Content ([2]; month 1) was 99.77%. The Description ([2]; month 1) was “White”, the Related substance ([2]; month 1) was 0.23% and the Content ([2]; month 2) was 99.63%. The Description ([2]; month 2) was “White”, the Related substance ([2]; month 2) was 0.37% and the Content ([2]; month 3) was 99.50%. For the same molecule, the Description ([2]; month 3) was “White”, the Related substance ([2]; month 3) was 0.50% and the Content ([2]; month 6) was 99.37%. The Description ([2]; month 6) was “White”, the Related substance ([2]; month 6) was 0.63% and the Content ([3]; month 0) was 99.87%. The Description ([3]; month 0) was “White”, the Related substance ([3]; month 0) was 0.18% and the Content ([3]; month 3) was 99.78%. The Description ([3]; month 3) was “White”, the Related substance ([3]; month 3) was 0.22% and the Content ([3]; month 6) was 99.71%. The Description ([3]; month 6) was “White”, the Related substance ([3]; month 6) was 0.29% and the Content ([3]; month 9) was 99.61%. For the same molecule, the Description ([3]; month 9) was “White”, the Related substance ([3]; month 9) was 0.39% and the Content ([3]; month 12) was 99.51%. For the same molecule, the Description ([3]; month 12) was “White”, the Related substance ([3]; month 12) was 0.49% and the Content ([3]; month 24) was 98.98%. The Description ([3]; month 24) was “White” and the Related substance ([3]; month 24) was 1.02%.
